The term EC50 denotes the concentration that produces a half-maximal response. A low value points to higher potency in that assay.

The first experiment deals with T1, human TREM2 (Homo sapiens, UniProt Q9NZC2).
T1 construct: expressed in transfected cells; host or cells: HEK293T (HEK293T-hTREM2 cells)
T1 sequence (Q9NZC2 19-230): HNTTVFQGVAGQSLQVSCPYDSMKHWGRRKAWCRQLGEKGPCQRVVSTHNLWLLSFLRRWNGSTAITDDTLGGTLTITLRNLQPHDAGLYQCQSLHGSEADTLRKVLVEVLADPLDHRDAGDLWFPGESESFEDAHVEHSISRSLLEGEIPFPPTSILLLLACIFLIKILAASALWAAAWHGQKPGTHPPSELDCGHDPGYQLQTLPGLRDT
T1 sequence (O43914 22-113 partner): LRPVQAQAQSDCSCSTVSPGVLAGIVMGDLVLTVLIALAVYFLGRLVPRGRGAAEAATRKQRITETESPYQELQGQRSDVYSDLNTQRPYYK
Nature of the experiment: Cellular phosphorylation of Syk (AlphaLisa) in HEK293T-hTREM2 cells, TREM2 agonist potency. The class given is cell-based. The conditions noted are these: HEK293 cells expressing human TREM2 and DAP12; pSyk AlphaLisa; Table D. As to the method:
In Vitro Measurement of Triggering Receptor Expressed on Myeloid Cells 2 Activity Using Cellular Phosphorylation of Spleen Tyrosine Kinase (“Syk”) Assays
Measurement of TREM2 agonist potency was done using a HEK cell line expressing human TREM2 and DAP12 (HEK293T-hTREM2 cells). Binding of small molecules to, and activation of, TREM2 increases the phosphorylation of Syk. The resultant levels of Syk phosphorylation are measured using a commercial AlphaLisa reagent kit. To perform the assay, HEK-hTREM2 cells were plated at 14,000 cells per well in a 384 well plate, in 25 μL of complete growth media and incubated at 37° C., 5% CO2 for 20-24 hours.
Prior to the assay, test compounds were diluted in the 384 well plates in assay buffer and allowed to equilibrate for 30 minutes. Growth media was removed from cell plates by inversion on blotting paper, and 25 μL of test articles in assay buffer was added to cells. Cells were incubated for 45 minutes at room temperature. After 45 minutes, assay buffer was removed and 10 μL of lysis buffer was added. Plates were shaken for 20 minutes at 350 RPM at room temperature. After complete lysis, AlphaLisa reagents were added to the lysate, and fluourescence intensity was measured using a Perkin Elmer Envision plate reader. Intensities were used to generate a standard curve, and % activation was calculated. Curve fitting was performed using Prism v9 software, log(agonist) vs response—variable slope (four parameters), and EC50s were calculated from the curve fit.
The results presented in Table D have been generated with the in vitro assay described above. This assay may be used to test any of the compounds described herein to assess and characterize a compound's ability to act as an agonist of TREM2.
A general note: Alpha assays give light when donor and acceptor beads are brought close together.
For `Cc1ccc2c(-c3ccc(Cl)cc3)nn(-c3ccc(OC(F)(F)F)cc3)c(=O)c2n1` [compound 23, 5-(4-chlorophenyl)-2-methyl-7-(4-(trifluoromethoxy)phenyl)pyrido[2,3-d]pyridazin-8(7H)-one], the EC50 lay in the range of 0.5 to 3 µM.

As to `Cc1nc2c(=O)n(CC(O)c3ccc(Cl)cc3)nc(-c3ccc(Cl)cc3)c2s1` (centres unmarked) [compound 26, 7-(4-chlorophenyl)-5-(2-(4-chlorophenyl)-2-hydroxyethyl)-2-methylthiazolo[4,5-d]pyridazin-4(5H)-one], the EC50 is 3 to 100 µM.

In turn, `Cc1cc2c(-c3ccc(Cl)cc3)nn(-c3ccnc(C4COC4)c3)c(=O)c2cc1C` [compound 14, 4-(4-chlorophenyl)-6,7-dimethyl-2-(2-(oxetan-3-yl)pyridin-4-yl)phthalazin-1(2H)-one] returned an EC50 of 0.5 to 3 µM.

With `Cc1cc2c(-c3ccc(Cl)cc3)nn(-c3ccnc(N4CCN(C(=O)OC(C)(C)C)CC4)c3)c(=O)c2cc1C` [compound 18, tert-butyl 4-(4-(4-(4-chlorophenyl)-6,7-dimethyl-1-oxophthalazin-2(1H)-yl)pyridin-2-yl)piperazine-1-carboxylate], the EC50 lay in the range of 0.5 to 3 µM.

`Cc1ccc(-c2nn(CCc3ccccc3)c(=O)c3nc(C)sc23)cc1` [compound 34, 2-methyl-5-phenethyl-7-(p-tolyl)thiazolo[4,5-d]pyridazin-4(5H)-one]: the EC50 was 3 to 100 µM.

Regarding `Cc1nc2c(=O)n(CC(=O)c3ccc(Cl)cc3)nc(-c3ccc(Cl)cc3)c2s1` [compound 24, 7-(4-chlorophenyl)-5-(2-(4-chlorophenyl)-2-oxoethyl)-2-methylthiazolo[4,5-d]pyridazin-4(5H)-one], the EC50 was 3 to 100 µM.

The compound `Cc1cc2c(-c3ccc(Cl)cc3)nn(-c3ccc(OC(F)(F)F)cc3)c(=O)c2nc1C` [compound 1, 5-(4-chlorophenyl)-2,3-dimethyl-7-(4-(trifluoromethoxy)phenyl)pyrido[2,3-d]pyridazin-8 (7H)-one] displayed an EC50 of 0.5 to 3 µM.

The compound `Cc1nc2c(=O)n(-c3ccc(C(=O)O)cc3)nc(-c3ccc(Cl)cc3)c2s1` [compound 42, 4-(7-(4-chlorophenyl)-2-methyl-4-oxothiazolo[4,5-d]pyridazin-5(4H)-yl)benzoic acid] showed an EC50 of 0.05 to 0.5 µM.

`Cc1nc2c(=O)n(CCc3ccccc3)nc(-c3ccccc3)c2s1` [compound 29, 2-methyl-5-phenethyl-7-phenylthiazolo[4,5-d]pyridazin-4(5H)-one] gave an EC50 of 3 to 100 µM.

`Nc1nc2c(=O)n(CCc3ccccc3)nc(-c3ccc(Cl)cc3)c2s1` [compound 33, 2-amino-7-(4-chlorophenyl)-5-phenethylthiazolo[4,5-d]pyridazin-4(5H)-one] yielded an EC50 of 3 to 100 µM.

Still in this experiment, the particulars now being: HEK293 cells expressing human TREM2 and DAP12; pSyk AlphaLisa; Table D-2.
As for `Cc1cc2c(-c3ccc(Cl)cc3)cn(-c3ccc(OC(F)(F)F)cc3)c(=O)c2nc1C` [I-122, 5-(4-chlorophenyl)-2,3-dimethyl-7-(4-(trifluoromethoxy)phenyl)-1,7-naphthyridin-8 (7H)-one], the EC50 is 0.5 to 3 µM.

The compound `Cc1nc2c(-c3ccc(C(F)(F)F)cc3F)cn([C@H]3CCO[C@@H](c4cnn(C5CC5)c4)C3)c(=O)c2nc1C` [I-123, 6-[(2R,4S)-2-(1-cyclopropyl-1H-pyrazol-4-yl)tetrahydro-2H-pyran-4-yl]-8-[2-fluoro-4-(trifluoromethyl)phenyl]-2,3-dimethylpyrido[3,4-b]pyrazin-5 (6H)-one] yielded an EC50 of 0.5 to 3 µM.

Consider `Cc1cc2c(-c3ccc(Cl)c(Cl)c3)nn(-c3ccnc(C4COC4)c3)c(=O)c2cc1C` [I-107, 4-(3,4-dichlorophenyl)-6,7-dimethyl-2-[2-(oxetan-3-yl)-4-pyridyl]phthalazin-1-one], for which the EC50 lay within 0.5 to 3 µM.

On to `Cc1cc2c(-c3ccc(Cl)cc3)nn(-c3ccnc(NC4COC4)c3)c(=O)c2nc1C` [I-116, 5-(4-chlorophenyl)-2,3-dimethyl-7-(2-(oxetan-3-ylamino)pyridin-4-yl)pyrido[2,3-d]pyridazin-8 (7H)-one], for which the EC50 fell in the range of 0.5 to 3 µM.

As for `Cc1cc2c(-c3ccc(Cl)cc3F)nn(-c3ccnc(C4COC4)c3)c(=O)c2cc1C` [I-111, 4-(4-chloro-2-fluoro-phenyl)-6,7-dimethyl-2-[2-(oxetan-3-yl)-4-pyridyl]phthalazin-1-one], the concentration for a half-maximal effect (EC50) lay in the range of 0.5 to 3 µM.

Compound `Cc1cc2c(-c3ccc(Cl)cc3)nn(-c3ccnc(NC4CC(F)(F)C4)c3)c(=O)c2nc1C` [I-117, 5-(4-chlorophenyl)-7-(2-((3,3-difluorocyclobutyl)amino)pyridin-4-yl)-2,3-dimethylpyrido[2,3-d]pyridazin-8 (7H)-one] returned an EC50 of 0.5 to 3 µM.

The compound `Cc1cc2c(-c3ccc(Cl)cc3)nn(-c3ccnc(NC4CCOC4)c3)c(=O)c2nc1C` (racemic) [I-113, 5-(4-chlorophenyl)-2,3-dimethyl-7-(2-((tetrahydrofuran-3-yl)amino)pyridin-4-yl)pyrido[2,3-d]pyridazin-8 (7H)-one] returned an EC50 of 0.5 to 3 µM.

Values taken from patent US20260152484A1, “HETEROCYCLIC COMPOUNDS AS TRIGGERING RECEPTOR EXPRESSED ON MYELOID CELLS 2 AGONISTS” (Vigil Neuroscience, Inc., priority 2021, published 2026).
